Three molecules from US20220257578A1, “COMPOSITION AND METHOD FOR TREATING CANDIDA AURIS INFECTION” (Appili Therapeutics Inc., priority 2019, published 2022) can be followed below.

One assay relates to C. auris (DI 17-46). In words: Neutropenic mice with invasive candidiasis secondary to C. auris (survival arm and fungal burden arm). It counts as in vivo. Particulars: for percent survival: day 21, control 0%; for kidney fungal burden (mean): control 7.09; for kidney fungal burden: control 8.04. The procedure:
FIG. 1 depicts survival curves in mice inoculated intravenously with C. auris and treated with vehicle control, fluconazole 20 mg/kg PO QD, or caspofungin 10 mg/kg IP QD (A) or T-2307 at doses of 0.75 mg/kg, 1.5 mg/kg, or 3 mg/kg SC QD (B). Treatment started one day post-inoculation and continued for 7 days. Mice were then followed off therapy until day 21 post-inoculation (14 days after therapy stopped). Black square—vehicle control; white circle—fluconazole 20 mg/kg; black circle—caspofungin 10 mg/kg; inverted gray triangle T-2307 0.75 mg/kg; gray rectangle—T-2307 1.5 mg/kg; gray triangle—T-2307 3 mg/kg. N=10 mice per group.
FIG. 2 depicts graphs showing kidney (A) and brain (B) fungal burden (CFU/g) in mice with invasive candidiasis secondary to C. auris in the fungal burden arm. Colony-forming units were measured on day 8 post-inoculation after 7 days of therapy. N=10 mice in the vehicle control and treatment groups; N=5 mice in the 24-hour control group.
FIG. 3 depicts graphs showing kidney (A) and brain (B) fungal burden (CFU/g) in mice with invasive candidiasis secondary to C. auris in the survival arm. Colony-forming units were measured […]. N=10 mice in the vehicle control and treatment groups; N=5 mice in the 24-hour control group. Black circles represent mice that succumbed to infection prior to day 21; gray circles represent mice that survived to the survival endpoint.
Male Institute of Cancer Research (ICR) mice were rendered neutropenic with a single dose of 5-fluorouracil (5 mg/mouse) administered 24 hours prior to inoculation, and a clinical isolate of C. auris (DI 17-46) was used to infect mice via the lateral tail vein as previously described (Wiederhold et al. 2019. Antimicrob Agents Chemother. 63:e02233-18, the entire contents of which is herein incorporated by reference). Treatment with vehicle control, T-2307 (0.75, 1.5, or 3 mg/kg subcutaneously (SC) once daily), fluconazole (20 mg/kg per orally (PO) once daily), or caspofungin (10 mg/kg intraperitoneally (IP) once daily) began 1-day post-inoculation and continued for 7 days. In the fungal burden arm, mice were humanely euthanized on day 8 post-inoculation, and kidneys and brains were collected, weighed, and homogenized for analysis of colony-forming units (CFU/g). In the survival arm, mice were followed off therapy for 14 days, until day 21 post-inoculation. Fungal burden was also assessed in the survival arm on day 21 or on the day the mice succumbed to infection. Differences in survival were assessed by Kaplan-Meier analysis with the log-rank test. ANOVA with Tukey's post-test for multiple comparisons were used to assess for differences in fungal burden and geometric mean (GM) MIC values.

A further assay concerns C. auris. In words: In vitro susceptibility testing according to CLSI M27-A3 (MIC). It is filed as cell-based, Candida auris. The settings on record: for MIC50 / MIC90 / MIC: Candidozyma auris; for MIC50: lowest concentration that inhibited 50% of the isolates tested; for MIC90: lowest concentration that inhibited 90% of the isolates tested. The procedure: In vitro susceptibility testing was performed according to the CLSI M27-A3 standard, the contents of which are herein incorporated by reference, against 10 isolates available from the U.S. Food and Drug Administration Center for Disease Control Antibiotic Resistance (FDA CDC AR) Isolate Bank and 13 clinical isolates that were received for testing by the Fungus Testing Laboratory at University of Texas Health Science Center at San Antonio (UTHSCSA).
In vitro activity of T-2307, fluconazole, and caspofungin against C. auris. […] MIC50 and MIC90 are lowest concentrations that inhibited 50% and 90%, respectively, of the isolates tested. GM MIC is geometric mean MIC.

The mark [1] stands for this setting: 50% inhibition endpoint, read-out: GM MIC (geometric mean MIC).
Setting [2] is: infecting clinical isolate of C. auris (DI 17-46), read-out: MIC against the infecting isolate.

In brackets after ≈: the same amount, converted by molar mass. Read-outs that look alike come from different tables or passages of the source.

For `CC[C@H](C)C[C@H](C)CCCCCCCCC(=O)N[C@H]1C[C@@H](O)[C@@H](NCCN)NC(=O)[C@@H]2[C@@H](O)CCN2C(=O)[C@H]([C@H](O)CCN)NC(=O)[C@H]([C@H](O)[C@@H](O)c2ccc(O)cc2)NC(=O)[C@@H]2C[C@@H](O)CN2C(=O)[C@H]([C@@H](C)O)NC1=O` [Caspofungin, caspofungin], in the assay with C. auris (DI 17-46) (caspofungin 10 mg/kg IP once daily for 7 days), the percent survival is on record as 100%. The brain fungal burden in the assay on C. auris (DI 17-46) (fungal burden arm, day 8 post-inoculation, caspofungin 10 mg/kg IP, control 5.88) is reported as 4.45 log10 CFU/g; in the assay on C. auris (DI 17-46) (survival arm, day 21 or day mice succumbed, caspofungin 10 mg/kg IP, control 6.31), 2.51 log10 CFU/g. In addition, the “kidney fungal burden (mean)” value in the assay with C. auris (DI 17-46) (fungal burden arm, day 8 post-inoculation, caspofungin 10 mg/kg IP) is 3.21 log10 CFU/g. The molecule further displayed a kidney fungal burden in the assay with C. auris (DI 17-46) (survival arm, day 21 or day mice succumbed, caspofungin 10 mg/kg IP) of 3.11 log10 CFU/g. Besides, the MIC50 with C. auris (50% inhibition endpoint) came out at 0.25 µg/mL (≈ 0.229 µM). The molecule further yielded an MIC90 against C. auris (50% inhibition endpoint) of 0.5 µg/mL (≈ 0.457 µM). In addition, the MIC came out at 0.24 µg/mL (≈ 0.22 µM) in the assay with C. auris (setting [1]) and 0.25 µg/mL (≈ 0.229 µM) in the assay with C. auris (setting [2]).
Consider `OC(Cn1cncn1)(Cn1cncn1)c1ccc(F)cc1F` [Fluconazole, fluconazole], for which the “improvement in survival vs control” value in the assay on C. auris (DI 17-46) (fluconazole 20 mg/kg PO once daily) is reported as “did not improve survival”. For the same molecule, in the assay on C. auris (50% inhibition endpoint), the MIC50 stood at 4 µg/mL (≈ 13.1 µM) and the MIC90 was above 64 µg/mL. Moreover, in the assay with C. auris (setting [1]), the MIC worked out at 14.6 µg/mL (≈ 47.7 µM). Further, the MIC in the assay on C. auris (setting [2]) is above 64 µg/mL.
With `N=C(N)c1ccc(OCCCC2CCN(CCCOc3ccc(C(=N)N)cc3)CC2)cc1` [T-2307, 4-{3-[4-(3-{4-[amino(imino)methyl]phenoxy}propyl)-1-piperidinyl]propoxy}benzamidine], the percent survival with C. auris (DI 17-46) (T-2307 3 mg/kg SC once daily for 7 days) is on record as 70%. For the same molecule, the “kidney fungal burden (mean)” value with C. auris (DI 17-46) (fungal burden arm, day 8 post-inoculation, T-2307 3 mg/kg SC) was 5.06 log10 CFU/g. The “nature of activity (kidney fungal burden vs 24-hour group before start of therapy)” value in the assay on C. auris (DI 17-46) (fungal burden arm, T-2307 3 mg/kg SC) is “static in nature”. Besides, the “improvement in survival vs control” value in the assay on C. auris (DI 17-46) (lower doses of T-2307 (0.75, 1.5 mg/kg SC once daily)) is reported as “did not improve survival”. In the assay with C. auris (DI 17-46) (survival arm, day 21 or day mice succumbed, T-2307 3 mg/kg SC, control 6.31), the brain fungal burden came to 4.16 log10 CFU/g. In addition, in the assay on C. auris (DI 17-46) (survival arm, day 21 or day mice succumbed, T-2307 3 mg/kg SC), the kidney fungal burden is 6.28 log10 CFU/g. In addition, the “MIC Range” value against C. auris (50% inhibition endpoint, 23 C. auris isolates, 24 hours at 35° C.) was at most 0.008 to 0.015 µg/mL. Besides, the MIC50 is 0.015 µg/mL (≈ 0.0343 µM) against C. auris (50% inhibition endpoint) and above 4 µg/mL in the assay on C. auris (100% inhibition endpoint). The MIC90 against C. auris (50% inhibition endpoint) was 0.015 µg/mL (≈ 0.0343 µM); against C. auris (100% inhibition endpoint) it was above 4 µg/mL. Besides, the MIC in the assay with C. auris (setting [1]) is 0.011 µg/mL (≈ 0.0251 µM); in the assay with C. auris (100% inhibition endpoint, read-out: GM MIC (geometric mean MIC)), 2.19 µg/mL (≈ 5 µM); in the assay with C. auris (setting [2]) it was below 0.008 µg/mL.
